Source: patent US20050048462A1, “Markers and screens” (priority 2001, published 2005)

Columns and labels:
Format in all cases: cell-based
[1] = tested on: GFP-tagged gelsolin in hippocampal neurons; experiment: Gelsolin accumulation in dendritic spines, receptor subtype specificity
Description: Imaging was performed at 37° C. in Tyrode's solution pH 7.3, with GFP-optimized filters (Chroma Technologies, Brattleboro, Vt.) and a MicroMax cooled CCD camera (Princeton Instruments, Trenton, N.J.) controlled by Metamorph software (Universal Imaging corporation, West Chester, Pa.). Cells were stimulated by addition of glutamate or NMDA (5 to 10 μM) for up to 30 minutes. In experiments where specific receptor subtypes were blocked, cells were preincubated for 15 minutes with corresponding antagonists.
In these experiments only 2.5 μM glutamate was used.

[2] = tested on: hippocampal neurons expressing unmodified GFP; experiment: Distribution of unmodified GFP in dendrites after glutamate (control construct); conditions: 10 μM glutamate
Description: (§1) To test this hypothesis we exposed hippocampal neurons expressing GFP-tagged profilin II or profilin I or unmodified GFP to 10 μM glutamate (FIG. 2). […] Glutamate treatment also produced a weaker shift of GFP tagged profilin I into spines (FIG. 2D) which, however, never approached the high levels seen for profilin II.

[3] = tested on: hippocampal neurons expressing GFP-tagged profilin I; experiment: Profilin I-GFP redistribution to spines after glutamate; conditions: 10 μM glutamate; compared with profilin II
Description: as §1

[4] = tested on: cultured hippocampal neurons; conditions: glutamate 100 microM for 30 min
Source text: This is relevant to stroke and epilepsy where hyperstimulation of receptors by released glutamate causes neuronal damage. Thus it appears that profilin II tagging occurs even after events that ultimately lead to apoptosis have been set in motion. In toxicity models, profilin II targeting could thus act as a marker for potentially damaged cells at times before cell death occurs.

[5] = treated with glutamate (2.5 μM) while blocking specific receptor subtypes
[6] = treated with agonists for specific receptor subtypes

Structure (SMILES)	Accumulation (+) of gelsolin, number of cells [1, 5]	No change (−) of gelsolin, number of cells [1, 5]	Accumulation (+) of gelsolin, number of cells [1, 6]	No change (−) of gelsolin, number of cells [1, 6]	also measured
CC(N)(C(=O)O)c1ccc(C(=O)O)cc1 (racemic) [MCPG, (R, S)-[…]-methyl-4-carboxyphenylglycine]	3	8			
Cc1onc(O)c1CC(N)C(=O)O (centres unmarked) [AMPA, amino-3-hydroxy-5-methyl-4-isoxazolepropionic acid]			0	10	
N[C@H](CCCP(=O)(O)O)C(=O)O [APV, D(−)-2-amino-5-phosphonopentanoic acid]	1	14			
N[C@H](C(=O)O)c1cc(O)cc(O)c1 [DHPG, (S)-3,5-dihydroxyphenylglycine]			4	7	
NS(=O)(=O)c1cccc2c1c([N+](=O)[O-])cc1[nH]c(=O)c(=O)[nH]c12 [NBQX, 1,2,3,4-Tetrahydro-6-nitro-2,3-dioxo-benzo[f]quinoxaline-7-sulfonamide]	7	6			
CN[C@H](CC(=O)O)C(=O)O [NMDA, N-methyl-D-aspartate]			11	16	
N[C@@H](CCC(=O)O)C(=O)O [glutamate]					Distribution of unmodified GFP (in words) [2]: did not change the distribution; Number of cells in category − ([2]; GFP construct): 7; Shift of GFP tagged profilin I into spines (in words) [3]: weaker shift; Profilin II-GFP targeting despite degenerative changes (in words) [4]: still targeted to punctate sites within dendrites; Time to excitotoxic changes (loss of normal morphology, swelling of dendrites) [4]: ≤ 2 min
